These results are taken from patent US5376658A, “5,10-methylene-tetrahydrofolate as a modulator of a chemotherapeutic agent” (priority 1993, dated 1994).

The structures appear in SMILES notation.

The subject of data set [1] is CH2 FH4 and FH4 in breast cancer biopsies. Kind of data set: CH2 FH4 and FH4 levels in breast cancer biopsies during L-serine infusion after high-dose (6R,S)-leucovorin. The class given is in vivo, human. More on the design: CH2 FH4 / FH4: unit not given here. Here is the method: As noted previously (see pages 5-6) and mentioned in C. P. Spears, et al., Proc. Am. Soc. Clin. Oncol. 8:69 (1989), the inventors have used pharmacologic intervention to convert intracellular FH4 to CH2 FH4 in patients receiving high-dose reduced folate therapy combined with weekly i.v. bolus 5-FU, 450 mg/sq. m. The method used was administration of i.v. L-serine, 15.0 grams, over 1 hour after the end of overnight high-dose (6R,S)-leucovorin i.v. infusion.
In contrast to the data shown in Tables II and III, the inventors were able to also assay for intratumoral FH4 in addition to CH2 FH4 (this latter is also referred to as "FBC" in those Tables or Folate-Binding Capacity), at time points during this pharmacologic forcing of metabolism of FH4 to CH2 FH4 through the enzyme, serine hydroxymethyltransferase. This enzyme splits a carbon of L-serine to generate formaldehyde in the presence of FH4.
^a Minutes after initiation of 15.0 gram LSerine i.v. 60min infusion,
after end of overnight (6R,S)leucovorin highdose i.v. infusion.
^b Assays performed as described (C.P. Spears et al., Adv. Exp. Med.

The subject of another data set is breast cancer. Kind of data set: Clinical effect in patients receiving 5-FU plus high-dose (6R,S)-leucovorin with L-serine or glycine. As to conditions: person; L-serine i.v. added to 5-FU/(6R,S)-leucovorin, subsequently glycine 10 grams i.v. The class given is in vivo, human. Here is the method:
As noted previously (see pages 5-6) and mentioned in C. P. Spears, et al., Proc. Am. […] Clin. Oncol. 8:69 (1989), the inventors have used pharmacologic intervention to convert intracellular FH4 to CH2 FH4 in patients receiving high-dose reduced folate therapy combined with weekly i.v. bolus 5-FU, 450 mg/sq. m. The method used was administration of i.v. L-serine, 15.0 grams, over 1 hour after the end of overnight high-dose (6R,S)-leucovorin i.v. infusion.

A further data set relates to gastrointestinal cancers. As to conditions: human, in vivo; cited from earlier work.
For data set [2], the system named is hepatic colonic carcinoma. Kind of data set: Tumor weight in rats bearing transplanted hepatic colonic carcinoma. The class given is in vivo, rat. From the text: (§1) The present inventors have considerable experience with this model, and the antitumor effects of 5-FU shown are typical results, as are the TS and folate assays of control and 5-FU-only-treated rats. […] In fact, the "free TS" levels in the (6R,S)-FH4 -only-treated rats were the lowest of all arms of the study.
>94% by HPLC). The (6 R,S)FH 4 was weighed, dissolved in normal
saline, and injected daily by tail vein administration using the airfree
Protector device to prevent oxidative destruction of the folate.
(§2) ^b Inoculation of 1 × 10^6 viable colon tumor
(§3) (nitrosoguanidineinduced) cells under the liver capsule on Day 1 (Carlsso
(§4) et al., Anticancer Res. 10:813-16 (1990)). Animals sacrificed on Day 17
(§5) for excision of single liver tumor nodules for pharmacodynamic studies.

The test system of another data set is TS. Kind of data set: TS assay in liver tumors of rats bearing transplanted hepatic colonic carcinoma. Format: in vivo, rat. Particulars: 30 mg/kg each; 24 h after last injection; control 18.96.
From the text: as §1, §2, §3, §4, §5
(§6) ^d Assays done as described (Spears et al. Adv. Exp. Med. Biol.

Data set [3] relates to 5,10-CH2 FH4 and FH4 levels in liver tumor. Kind of data set: Folate assay (5,10-CH2 FH4 and FH4) in liver tumors of rats. Format: in vivo, rat. As to conditions: 30 mg/kg each, 24 h after last injection.
From the text: as §1, §2, §3, §4, §5, §6

The conditions of data set [4]: cited from earlier work.
The nature of data set [5]: Dimedone trapping of labile 14CH2O group on dilution. The class given is physicochemical. As to conditions: 46,664 DPM diluted to 1 ml in H2O, 37° C. The source says:
This requirement for a large excess of formaldehyde to shift the equilibrium between FH4 and CH2 FH4 (Eq. 1) was found by the inventors to
be independent of temperature, pH or the formaldehyde content of charcoal isolation, the presence of air exposure, or the presence of reducing agents. In addition, [11-^14 C]CH2 FH4 prepared as described (Moran et al., Proc. Natl. Acad. Sci. USA 76:1456-60 (1979)), and DEAE-purified (as the concentrated material) of excess ^14 CH2 O, was confirmed to have a labile ^14 CH2 O group by dimedone trapping.

[6] abbreviates: patient four, 25 min after initiation of 15.0 g L-serine i.v.
Where [7] appears, read: patient four, 82 min after initiation of 15.0 g L-serine i.v.
Setting [8] is: patient two, 22 min after initiation of 15.0 g L-serine i.v.
Setting [9] is: patient two, 65 min after initiation of 15.0 g L-serine i.v.
Where [10] appears, read: separate confirmatory experiment, 6 rats/group.

Take `N[C@@H](CO)C(=O)O` [L-serine]: the “Ratio of FH4/CH2 FH4” value came to 2.9 in data set [1] (patient four, 25 min); 3.0 in data set [1] (patient four, 82 min); 3.4 in data set [1] (patient two, 22 min); 2.7 in data set [1] (patient two, 65 min). Further, the “CH2 FH4” value in data set [1] (setting [6]) is given as 0.396; in data set [1] (setting [7]), 0.475; in data set [1] (setting [8]) it was 0.253; in data set [1] (setting [9]), 0.340. In addition, the FH4 was 1.128 in data set [1] (setting [6]), 1.420 in data set [1] (setting [7]), 0.854 in data set [1] (setting [8]) and 0.907 in data set [1] (setting [9]). For the same compound, the “Clinical effect, third patient” value in the data set with breast cancer was “rapid acceleration of objective tumor growth and tumor symptoms”.
With `Nc1nc2ncc(CNc3ccc(C(=O)N[C@@H](CCC(=O)O)C(=O)O)cc3)nc2c(=O)[nH]1` [folic acid], the “effect of addition to 5-FU therapy” value with gastrointestinal cancers is “increase in toxicity without improved response rates”.
On to `Cl.Cl.Nc1nc2c(c(=O)[nH]1)NC(CNc1ccc(C(=O)N[C@@H](CCC(=O)O)C(=O)O)cc1)CN2.O` (mixture of isomers) [(6R,S)-FH4, 5,6,7,8Tetrahydropteroyl-L-glutamic acid dihydrochloride monohydrate], for which, in data set [2] (Day 17 after transplantation, 30 mg/kg each, average of 3 rats, control 5.84), the Tumor weight was 10.43 g. Further, in data set [2] (setting [10]), the “tumor growth, % of control tumor weight” value is 171% and the “tumor size (weight)” value came to 6.0 ± 1.1 g. Moreover, the TS in the data set on TS was 7.13 p mole/g. Further, the “5,10-CH2 FH4” value in data set [3] (control 0.69) came to 2.93 nmol/g. This compound also returned an FH4 in data set [3] (control 1.18) of 2.31 nmol/g. Moreover, the stability of powder entry in data set [4] (anaerobic conditions, room temperature) is “stable even at room temperature, for a year or more”. For the same compound, the “stability under anaerobic conditions” value in data set [4] (anaerobic conditions) is “completely stable”. Also, in data set [4] (in […], exposed to air), the degradation of solution is on record as 90%.
Turning to `NCC(=O)O` [glycine], the “Clinical effect, third patient” value in the data set on breast cancer was “rapid response to 5-FU therapy”.
In the case of `Nc1nc2c(c(=O)[nH]1)N1[14CH2]N(c3ccc(C(=O)N[C@@H](CCC(=O)O)C(=O)O)cc3)CC1CN2` (stereo partly shown) [[11-^14 C]-CH2 FH4], the “label recoverable by chloroform extraction of dimedone (methone) product” value in data set [5] was found to be 67.8%.
